Test results as given in ChEMBL document CHEMBL1649138, “In vitro activity of Isavuconazole against Aspergillus species and zygomycetes according to the methodology of the European Committee on Antimicrobial Susceptibility Testing” (Antimicrob Agents Chemother, 2009).
Values after ≈ are worked out from the molar mass of the structure shown.

Assays:
Aspergillus niger [1] = experiment: Antifungal activity against Aspergillus niger by EUCAST method; assay type: functional
Aspergillus fumigatus [2] = experiment: Fungicidal activity against Aspergillus fumigatus; assay type: functional
Rhizomucor [3] = experiment: Fungicidal activity against Rhizomucor; assay type: functional
Mucor [4] = experiment: Antifungal activity against Mucor by EUCAST method; assay type: functional
Aspergillus flavus [5] = experiment: Antifungal activity against Aspergillus flavus by EUCAST method; assay type: functional
Aspergillus flavus [6] = experiment: Fungicidal activity against Aspergillus flavus; assay type: functional
Mucor [7] = experiment: Antifungal activity against Mucor hyphae by EUCAST method; assay type: functional
Rhizopus [8] = experiment: Fungicidal activity against Rhizopus; assay type: functional
Aspergillus niger [9] = experiment: Fungicidal activity against Aspergillus niger; assay type: functional
Mucor [10] = experiment: Fungicidal activity against Mucor; assay type: functional
Absidia [11] = experiment: Antifungal activity against Absidia by EUCAST method; assay type: functional
Aspergillus terreus [12] = experiment: Antifungal activity against amphotericin B-resistant Aspergillus terreus hyphae by EUCAST method; assay type: functional
Aspergillus niger [13] = experiment: Antifungal activity against Aspergillus niger hyphae by EUCAST method; assay type: functional
Rhizomucor [14] = experiment: Antifungal activity against Rhizomucor by EUCAST method; assay type: functional
Rhizopus [15] = experiment: Antifungal activity against Rhizopus by EUCAST method; assay type: functional
Aspergillus flavus [16] = experiment: Antifungal activity against Aspergillus flavus hyphae by EUCAST method; assay type: functional
Rhizomucor [17] = experiment: Antifungal activity against Rhizomucor hyphae by EUCAST method; assay type: functional
Aspergillus terreus [18] = experiment: Antifungal activity against amphotericin B-resistant Aspergillus terreus by EUCAST method; assay type: functional
Cunninghamella [19] = experiment: Antifungal activity against Cunninghamella hyphae by EUCAST method; assay type: functional
Rhizopus [20] = experiment: Antifungal activity against Rhizopus hyphae by EUCAST method; assay type: functional
Aspergillus fumigatus [21] = experiment: Antifungal activity against Aspergillus fumigatus hyphae by EUCAST method; assay type: functional
Absidia [22] = experiment: Fungicidal activity against Absidia; assay type: functional
Cunninghamella [23] = experiment: Fungicidal activity against Cunninghamella; assay type: functional
Cunninghamella [24] = experiment: Antifungal activity against Cunninghamella by EUCAST method; assay type: functional
Absidia [25] = experiment: Antifungal activity against Absidia hyphae by EUCAST method; assay type: functional
Aspergillus fumigatus [26] = experiment: Antifungal activity against Aspergillus fumigatus by EUCAST method; assay type: functional
Aspergillus terreus [27] = experiment: Fungicidal activity against amphotericin B-resistant Aspergillus terreus; assay type: functional
Aspergillus fumigatus [28] = experiment: Antifungal activity against Aspergillus fumigatus by broth microdilution method; assay type: functional
Aspergillus flavus [29] = experiment: Antifungal activity against Aspergillus flavus by broth microdilution method; assay type: functional
Aspergillus terreus [30] = experiment: Antifungal activity against amphotericin B-resistant Aspergillus terreus by broth microdilution method; assay type: functional
Plasma = experiment: Plasma concentration in human; assay type: ADME, cell-free
Aspergillus niger [31] = experiment: Antifungal activity against Aspergillus niger by broth microdilution method; assay type: functional

CC[C@@H]([C@H](C)O)n1ncn(-c2ccc(N3CCN(c4ccc(OC[C@@H]5CO[C@@](Cn6cncn6)(c6ccc(F)cc6F)C5)cc4)CC3)cc2)c1=O [POSACONAZOLE]
MIC (Aspergillus niger [1]): 0.25 µg/mL (≈ 0.357 µM)
MIC50 (Aspergillus niger [1]): 0.25 µg/mL (≈ 0.357 µM)
MIC90 (Aspergillus niger [1]): 0.5 µg/mL (≈ 0.713 µM)
MIC90 (Aspergillus fumigatus [2]): 2 µg/mL (≈ 2.85 µM)
MIC90 (Rhizomucor [3]): > 8 µg/mL
MIC50 (Mucor [4]): 1 µg/mL (≈ 1.43 µM)
MIC90 (Mucor [4]): 1 µg/mL (≈ 1.43 µM)
MIC50 (Aspergillus flavus [5]): 0.125 µg/mL (≈ 0.178 µM)
MIC90 (Aspergillus flavus [5]): 0.5 µg/mL (≈ 0.713 µM)
MIC90 (Aspergillus flavus [6]): 2 µg/mL (≈ 2.85 µM)
MIC90 (Mucor [7]): > 8 µg/mL
MIC90 (Rhizopus [8]): > 8 µg/mL
MIC90 (Aspergillus niger [9]): 4 µg/mL (≈ 5.71 µM)
MIC90 (Mucor [10]): > 8 µg/mL
MIC (Absidia [11]): 0.5 µg/mL (≈ 0.713 µM)
MIC50 (Absidia [11]): 0.5 µg/mL (≈ 0.713 µM)
MIC90 (Absidia [11]): 1 µg/mL (≈ 1.43 µM)
MIC90 (Aspergillus terreus [12]): 1 µg/mL (≈ 1.43 µM)
MIC (Aspergillus niger [13]): 1 µg/mL (≈ 1.43 µM)
MIC90 (Aspergillus niger [13]): 1 µg/mL (≈ 1.43 µM)
MIC (Rhizomucor [14]): 1 µg/mL (≈ 1.43 µM)
MIC50 (Rhizomucor [14]): 1 µg/mL (≈ 1.43 µM)
MIC90 (Rhizomucor [14]): 4 µg/mL (≈ 5.71 µM)
MIC50 (Rhizopus [15]): 2 µg/mL (≈ 2.85 µM)
MIC90 (Rhizopus [15]): 4 µg/mL (≈ 5.71 µM)
MIC90 (Aspergillus flavus [16]): 1 µg/mL (≈ 1.43 µM)
MIC90 (Rhizomucor [17]): 8 µg/mL (≈ 11.4 µM)
MIC (Aspergillus terreus [18]): 0.125 µg/mL (≈ 0.178 µM)
MIC50 (Aspergillus terreus [18]): 0.125 µg/mL (≈ 0.178 µM)
MIC90 (Aspergillus terreus [18]): 0.5 µg/mL (≈ 0.713 µM)
MIC90 (Cunninghamella [19]): 8 µg/mL (≈ 11.4 µM)
MIC90 (Rhizopus [20]): > 8 µg/mL
MIC90 (Aspergillus fumigatus [21]): 0.5 µg/mL (≈ 0.713 µM)
MIC (Absidia [22]): 4 µg/mL (≈ 5.71 µM)
MIC90 (Absidia [22]): 4 µg/mL (≈ 5.71 µM)
MIC (Cunninghamella [23]): > 8 µg/mL
MIC90 (Cunninghamella [23]): 8 µg/mL (≈ 11.4 µM)
MIC (Cunninghamella [24]): 1 µg/mL (≈ 1.43 µM)
MIC50 (Cunninghamella [24]): 1 µg/mL (≈ 1.43 µM)
MIC90 (Cunninghamella [24]): 1 µg/mL (≈ 1.43 µM)
MIC (Absidia [25]): 4 µg/mL (≈ 5.71 µM)
MIC90 (Absidia [25]): 4 µg/mL (≈ 5.71 µM)
MIC50 (Aspergillus fumigatus [26]): 0.5 µg/mL (≈ 0.713 µM)
MIC90 (Aspergillus fumigatus [26]): 1 µg/mL (≈ 1.43 µM)
MIC90 (Aspergillus terreus [27]): 2 µg/mL (≈ 2.85 µM)

C[C@@H](c1ncncc1F)[C@](O)(Cn1cncn1)c1ccc(F)cc1F [VORICONAZOLE]
MIC50 (Aspergillus niger [1]): 2 µg/mL (≈ 5.73 µM)
MIC90 (Aspergillus niger [1]): 2 µg/mL (≈ 5.73 µM)
MIC90 (Aspergillus fumigatus [2]): 4 µg/mL (≈ 11.5 µM)
MIC (Rhizomucor [3]): > 8 µg/mL
MIC90 (Rhizomucor [3]): > 8 µg/mL
MIC (Mucor [4]): > 8 µg/mL
MIC50 (Mucor [4]): > 8 µg/mL
MIC90 (Mucor [4]): > 8 µg/mL
MIC50 (Aspergillus flavus [5]): 1 µg/mL (≈ 2.86 µM)
MIC90 (Aspergillus flavus [5]): 1 µg/mL (≈ 2.86 µM)
MIC90 (Aspergillus flavus [6]): 4 µg/mL (≈ 11.5 µM)
MIC (Mucor [7]): > 8 µg/mL
MIC90 (Mucor [7]): > 8 µg/mL
MIC (Rhizopus [8]): > 8 µg/mL
MIC90 (Rhizopus [8]): > 8 µg/mL
MIC90 (Aspergillus niger [9]): 8 µg/mL (≈ 22.9 µM)
MIC (Mucor [10]): > 8 µg/mL
MIC90 (Mucor [10]): > 8 µg/mL
MIC (Absidia [11]): > 8 µg/mL
MIC50 (Absidia [11]): > 8 µg/mL
MIC90 (Absidia [11]): > 8 µg/mL
MIC90 (Aspergillus terreus [12]): 1 µg/mL (≈ 2.86 µM)
MIC90 (Aspergillus niger [13]): 4 µg/mL (≈ 11.5 µM)
MIC (Rhizomucor [14]): > 8 µg/mL
MIC50 (Rhizomucor [14]): > 8 µg/mL
MIC90 (Rhizomucor [14]): > 8 µg/mL
MIC (Rhizopus [15]): > 8 µg/mL
MIC50 (Rhizopus [15]): > 8 µg/mL
MIC90 (Rhizopus [15]): > 8 µg/mL
MIC90 (Aspergillus flavus [16]): 2 µg/mL (≈ 5.73 µM)
MIC (Rhizomucor [17]): > 8 µg/mL
MIC90 (Rhizomucor [17]): > 8 µg/mL
MIC50 (Aspergillus terreus [18]): 0.5 µg/mL (≈ 1.43 µM)
MIC90 (Aspergillus terreus [18]): 2 µg/mL (≈ 5.73 µM)
MIC (Cunninghamella [19]): > 8 µg/mL
MIC90 (Cunninghamella [19]): > 8 µg/mL
MIC (Rhizopus [20]): > 8 µg/mL
MIC90 (Rhizopus [20]): > 8 µg/mL
MIC90 (Aspergillus fumigatus [21]): 1 µg/mL (≈ 2.86 µM)
MIC (Absidia [22]): > 8 µg/mL
MIC90 (Absidia [22]): > 8 µg/mL
MIC (Cunninghamella [23]): > 8 µg/mL
MIC90 (Cunninghamella [23]): > 8 µg/mL
MIC (Cunninghamella [24]): > 8 µg/mL
MIC50 (Cunninghamella [24]): > 8 µg/mL
MIC90 (Cunninghamella [24]): > 8 µg/mL
MIC (Absidia [25]): > 8 µg/mL
MIC90 (Absidia [25]): > 8 µg/mL
MIC50 (Aspergillus fumigatus [26]): 1 µg/mL (≈ 2.86 µM)
MIC90 (Aspergillus fumigatus [26]): 1 µg/mL (≈ 2.86 µM)
MIC90 (Aspergillus terreus [27]): 2 µg/mL (≈ 5.73 µM)

C[C@@H](c1nc(-c2ccc(C#N)cc2)cs1)[C@](O)(Cn1cncn1)c1cc(F)ccc1F [ISAVUCONAZOLE]
MIC50 (Aspergillus niger [1]): 2 µg/mL (≈ 4.57 µM)
MIC90 (Aspergillus niger [1]): 4 µg/mL (≈ 9.14 µM)
MIC (Aspergillus fumigatus [2]): 1 µg/mL (≈ 2.29 µM)
MIC90 (Aspergillus fumigatus [2]): 1 µg/mL (≈ 2.29 µM)
MIC (Aspergillus fumigatus [28]): 0.63 µg/mL (≈ 1.44 µM)
MIC90 (Rhizomucor [3]): > 8 µg/mL
MIC50 (Mucor [4]): > 8 µg/mL
MIC90 (Mucor [4]): > 8 µg/mL
MIC50 (Aspergillus flavus [5]): 1 µg/mL (≈ 2.29 µM)
MIC90 (Aspergillus flavus [5]): 2 µg/mL (≈ 4.57 µM)
MIC90 (Aspergillus flavus [6]): 2 µg/mL (≈ 4.57 µM)
MIC90 (Mucor [7]): > 8 µg/mL
MIC (Aspergillus flavus [29]): 0.76 µg/mL (≈ 1.74 µM)
MIC90 (Rhizopus [8]): > 8 µg/mL
MIC (Aspergillus terreus [30]): 0.68 µg/mL (≈ 1.55 µM)
MIC90 (Aspergillus niger [9]): > 8 µg/mL
MIC90 (Mucor [10]): > 8 µg/mL
MIC50 (Absidia [11]): 4 µg/mL (≈ 9.14 µM)
MIC90 (Absidia [11]): > 8 µg/mL
MIC90 (Aspergillus terreus [12]): 2 µg/mL (≈ 4.57 µM)
MIC90 (Aspergillus niger [13]): 8 µg/mL (≈ 18.3 µM)
MIC50 (Rhizomucor [14]): > 8 µg/mL
MIC90 (Rhizomucor [14]): > 8 µg/mL
MIC50 (Rhizopus [15]): 4 µg/mL (≈ 9.14 µM)
MIC90 (Rhizopus [15]): > 8 µg/mL
MIC90 (Aspergillus flavus [16]): 2 µg/mL (≈ 4.57 µM)
MIC90 (Rhizomucor [17]): > 8 µg/mL
MIC50 (Aspergillus terreus [18]): 0.5 µg/mL (≈ 1.14 µM)
MIC90 (Aspergillus terreus [18]): 2 µg/mL (≈ 4.57 µM)
MIC90 (Cunninghamella [19]): > 8 µg/mL
MIC90 (Rhizopus [20]): > 8 µg/mL
MIC90 (Aspergillus fumigatus [21]): 1 µg/mL (≈ 2.29 µM)
MIC90 (Absidia [22]): > 8 µg/mL
MIC90 (Cunninghamella [23]): > 8 µg/mL
MIC50 (Cunninghamella [24]): 4 µg/mL (≈ 9.14 µM)
MIC90 (Cunninghamella [24]): > 8 µg/mL
Cp (Plasma): > 1700 ng/mL
MIC90 (Absidia [25]): > 8 µg/mL
MIC (Aspergillus niger [31]): 2.36 µg/mL (≈ 5.39 µM)
MIC50 (Aspergillus fumigatus [26]): 1 µg/mL (≈ 2.29 µM)
MIC90 (Aspergillus fumigatus [26]): 1 µg/mL (≈ 2.29 µM)
MIC90 (Aspergillus terreus [27]): 2 µg/mL (≈ 4.57 µM)
